Data published in paper PMC8151276, “An Integrated Approach toward NanoBRET Tracers for Analysis of GPCR Ligand Engagement” (Molecules, 2021).

Legend:
[1] = biological target: T1, HTR2C (Homo sapiens, UniProt P28335); assay: NanoBRET screen HiBiT-HTR2C in HEK293; assay type: binding; conditions: HTR2C
T1 construct: purchased Promega (in-house HiBiT-GPCR construct library, NanoBRET)
T1 sequence (P28335 33-458): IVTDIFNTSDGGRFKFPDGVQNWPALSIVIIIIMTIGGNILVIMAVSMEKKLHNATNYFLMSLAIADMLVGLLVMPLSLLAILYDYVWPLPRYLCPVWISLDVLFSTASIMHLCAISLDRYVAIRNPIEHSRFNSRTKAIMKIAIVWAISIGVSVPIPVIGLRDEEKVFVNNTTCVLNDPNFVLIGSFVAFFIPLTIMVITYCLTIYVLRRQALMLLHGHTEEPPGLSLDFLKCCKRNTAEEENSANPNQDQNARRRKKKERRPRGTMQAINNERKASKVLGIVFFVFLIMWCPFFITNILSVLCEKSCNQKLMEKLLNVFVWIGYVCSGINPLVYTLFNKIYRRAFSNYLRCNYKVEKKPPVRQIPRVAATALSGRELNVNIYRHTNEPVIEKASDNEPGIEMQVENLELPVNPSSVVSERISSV
Experimental: (§1) Each tracer candidate was screened across the entire library of HiBiT-GPCR constructs using NanoBRET as the detection modality. As depicted in Figure 4A, the specificity of interactions was evaluated through decrease in BRET due to competitive displacement of a bound tracer by excess parental compound. Each tracer was analyzed for binding to each HiBiT-GPCR fusion in the absence and in the presence of competing parental compound. Briefly, HEK293 cells were transfected with HiBiT-GPCR constructs diluted into promoterless DNA to reduce expression and maximize translocation to the cell surface. Each tracer candidate was then screened at concentrations of 1 μM and 0.1 μM across cells expressing these fusions. Cells were treated for 1.5 h with tracer either alone or in the presence of 20 μM competing parental compound (i.e., control). BRET was measured upon addition of purified LgBiT and subsequent complementation with HiBiT genetically fused to a GPCR. The specificity of interactions was assessed through a decrease in BRET signal due to competitive displacement of the bound tracer. To further gauge the robustness of these interactions, the fold response over the control (i.e., BRETtracer/BRETcontrol) was calculated. We chose a 1.5-fold response, which translates to ≥7-fold signal over noise as the minimal threshold required to score an interaction as positive.
(§2) HiBiT-GPCR DNA constructs were diluted in 10 mM Tris pH 8 to a final concentration of 0.01 μg/μL, arrayed in 96-well plates and stored at −20 °C. For transfection, HEK293 cells were suspended in Opti-MEM (without phenol red) supplemented with 2% fetal bovine serum (Seradigm) and 100 units/mL penicillin–streptomycin (Gibco) at a final concentration of 220,000 cells/mL and dispensed into white 96-well plates at 90 μL/well. Subsequent transfections and screens were carried using an Agilent Bravo Automated Liquid Handling Platform. First, the 96-well HiBiT DNA arrays were diluted 25-fold in Opti-MEM (without serum or phenol red) to a final concentration of 0.0004 μg/μL and 20 μL of the diluted DNAs were transferred into new 96-well plates. Next, promoterless carrier DNA (1 μg/μL) was diluted 25-fold (0.04 μg/μL) and then dispensed into the diluted arrays at 20 μL/well. Following brief mixing, Viafect transfection reagent (Promega) diluted 16-fold into Opti-MEM was dispensed into the plates at 40 μL/well. After mixing by pipetting, plates were incubated for 10 min on the pipetting station deck. The DNA-transfection reagent complexes were then added to plates containing cells. To facilitate the screen, 10 μL of DNA-transfection reagent complexes were added in duplicates to the top 4 and bottom 4 rows, resulting in two identical 48-well arrays per plate. Plates with transfected cells were incubated for 18–20 h at 37 °C/5% CO2. A screen of each tracer across the entire library using two different concentrations requires duplicate plates of transfected cells. Depending on the number of tracers being screened, transfections can be scaled up using the same ratios. The next day, for each tracer, four 20× screening solutions in tracer dilution buffer (Promega) were prepared: two duplicates at final concentration of 20 μM and two duplicates at a final concentration of 2 μM. […] The four resulting solutions were diluted 4-fold in Opti-MEM without serum or phenol red to generate 5× solutions (5 µM and 0.5 µM tracer +/− 100 μM competing compound). To screen the library, a BioTek MultiFlo FX liquid dispenser was used to dispense 22.5 µL of tracer solution to the top 4 rows and 22.5 µL tracer + competing compound solution to the 4 bottom rows. Plates were briefly mixed on an orbital shaker and incubated for 1.5 h at room temperature. […] Plates were briefly mixed on an orbital shaker and incubated for 15 min to allow complementation.

[2] = biological target: T2, NPFFR1 (Homo sapiens, UniProt Q9GZQ6); assay: NanoBRET screen HiBiT-NPFFR1 in HEK293; assay type: binding; conditions: NPFFR1; 1μM tracer
T2 construct: purchased Promega (in-house HiBiT-GPCR construct library, NanoBRET)
Experimental: as §1, §2

T2 sequence (Q9GZQ6 whole entry): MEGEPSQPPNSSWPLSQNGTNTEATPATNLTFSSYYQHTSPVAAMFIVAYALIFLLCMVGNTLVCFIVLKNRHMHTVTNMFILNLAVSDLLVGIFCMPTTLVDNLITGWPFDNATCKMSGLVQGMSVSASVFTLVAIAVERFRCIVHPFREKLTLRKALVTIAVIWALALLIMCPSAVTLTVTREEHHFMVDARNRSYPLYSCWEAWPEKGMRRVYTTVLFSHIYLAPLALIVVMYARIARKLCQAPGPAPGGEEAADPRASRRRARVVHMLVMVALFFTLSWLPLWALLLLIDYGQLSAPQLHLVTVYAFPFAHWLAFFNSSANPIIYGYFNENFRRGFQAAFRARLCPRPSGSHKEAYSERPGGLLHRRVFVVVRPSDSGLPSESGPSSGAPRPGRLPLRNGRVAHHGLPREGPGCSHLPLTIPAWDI

NanoBRET Fold Response ([1]; 0.1μM tracer): 1.89
NanoBRET Fold Response ([1]; 1μM tracer): 3.22
NanoBRET Fold Response [2]: 0.98
Compound: O=C(CCOCCOCCOCCOCCNC(=O)CCc1ccc2n1[B-](F)(F)[N+]1=C(c3ccc[nH]3)C=CC1=C2)NCCCN1CCN(C2=Nc3cc(Cl)ccc3Nc3ccccc32)CC1 [Clozapine-a-2-NB590]
